Earlier results, collected in patent publication US20210322384A1, “Method of Treatment for Ketamine Infusion” (Eleusis therapeutics us, inc., priority 2018, published 2021).
Like-named read-outs stand apart in the source and are kept apart here.

What was measured:
patients [1] = conditions: current state of the art ketamine treatments; industry standard
patients [2] = conditions: for improvement in MADRS score relative to standard antidepressants alone: plus standard antidepressants

Row | Compound | response rate in alleviating depression symptoms (patients [1]) [%] | reduction in MADRS score relative to control group (patients [2]; after 25 days) | improvement in MADRS score relative to standard antidepressants alone (patients [2]; at 24 hours after intranasal 84 mg) | improvement in MADRS score relative to standard antidepressants alone (patients [2]; at four hours after intranasal 84 mg) | side effects of nasal spray protocol (patients [2]; intranasal 84 mg aerosol spray)
1 | CNC1(c2ccccc2Cl)CCCCC1=O (centres unmarked) [ketamine] | ~70 | – | – | – | –
2 | CN[C@]1(c2ccccc2Cl)CCCCC1=O [esketamine] | – | did not result in any significant reduction | significantly greater improvement | significantly greater improvement | significant side effects
